# Data reported in patent US9249129B2, “Morpholino substituted urea derivatives as mTOR inhibitors” (CELLZOME LIMITED, priority 2010, dated 2016).
# Where two headings read alike, the source gives them in different places.
# Tests used:
# [1] = target: T1, DNA-dependent protein kinase (DNA-PK) (Homo sapiens, UniProt P78527); experiment: kinobeads assay, DNA-PK (dot blot detection); type: binding
# T1 construct: endogenous in cells; host or cells: Jurkat cells (ATCC TIB-152, clone E6-1), lysate
# Procedure, shortened: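 Jurkat cell lysate (5 mg/mL protein) incubated 2 h in the cold with test compound (9-step 1:3 series) and immobilized phenylthiazole/phenylmorpholin-chromen ligand beads. Bead-bound kinases eluted, detected by specific antibody dot blot with infrared readout; IC50 from dose-response curves.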
# PI3Kβ = target: T2, PI3Kβ (Homo sapiens, UniProt P42338); experiment: kinobeads assay, PI3K beta (dot blot detection); type: binding; settings: Table 4, read-out: Inhibition values (IC50) PI3Kb
# T2 construct: endogenous in cells; host or cells: Jurkat cells (ATCC TIB-152) lysate, the only lysate described
# [2] = Table 2, Jurkat cell lysate, read-out: Inhibition values (IC50) DNAPK
# [3] = Table 4, read-out: Inhibition values (IC50) DNAPK
# T1 sequence (P78527 whole entry): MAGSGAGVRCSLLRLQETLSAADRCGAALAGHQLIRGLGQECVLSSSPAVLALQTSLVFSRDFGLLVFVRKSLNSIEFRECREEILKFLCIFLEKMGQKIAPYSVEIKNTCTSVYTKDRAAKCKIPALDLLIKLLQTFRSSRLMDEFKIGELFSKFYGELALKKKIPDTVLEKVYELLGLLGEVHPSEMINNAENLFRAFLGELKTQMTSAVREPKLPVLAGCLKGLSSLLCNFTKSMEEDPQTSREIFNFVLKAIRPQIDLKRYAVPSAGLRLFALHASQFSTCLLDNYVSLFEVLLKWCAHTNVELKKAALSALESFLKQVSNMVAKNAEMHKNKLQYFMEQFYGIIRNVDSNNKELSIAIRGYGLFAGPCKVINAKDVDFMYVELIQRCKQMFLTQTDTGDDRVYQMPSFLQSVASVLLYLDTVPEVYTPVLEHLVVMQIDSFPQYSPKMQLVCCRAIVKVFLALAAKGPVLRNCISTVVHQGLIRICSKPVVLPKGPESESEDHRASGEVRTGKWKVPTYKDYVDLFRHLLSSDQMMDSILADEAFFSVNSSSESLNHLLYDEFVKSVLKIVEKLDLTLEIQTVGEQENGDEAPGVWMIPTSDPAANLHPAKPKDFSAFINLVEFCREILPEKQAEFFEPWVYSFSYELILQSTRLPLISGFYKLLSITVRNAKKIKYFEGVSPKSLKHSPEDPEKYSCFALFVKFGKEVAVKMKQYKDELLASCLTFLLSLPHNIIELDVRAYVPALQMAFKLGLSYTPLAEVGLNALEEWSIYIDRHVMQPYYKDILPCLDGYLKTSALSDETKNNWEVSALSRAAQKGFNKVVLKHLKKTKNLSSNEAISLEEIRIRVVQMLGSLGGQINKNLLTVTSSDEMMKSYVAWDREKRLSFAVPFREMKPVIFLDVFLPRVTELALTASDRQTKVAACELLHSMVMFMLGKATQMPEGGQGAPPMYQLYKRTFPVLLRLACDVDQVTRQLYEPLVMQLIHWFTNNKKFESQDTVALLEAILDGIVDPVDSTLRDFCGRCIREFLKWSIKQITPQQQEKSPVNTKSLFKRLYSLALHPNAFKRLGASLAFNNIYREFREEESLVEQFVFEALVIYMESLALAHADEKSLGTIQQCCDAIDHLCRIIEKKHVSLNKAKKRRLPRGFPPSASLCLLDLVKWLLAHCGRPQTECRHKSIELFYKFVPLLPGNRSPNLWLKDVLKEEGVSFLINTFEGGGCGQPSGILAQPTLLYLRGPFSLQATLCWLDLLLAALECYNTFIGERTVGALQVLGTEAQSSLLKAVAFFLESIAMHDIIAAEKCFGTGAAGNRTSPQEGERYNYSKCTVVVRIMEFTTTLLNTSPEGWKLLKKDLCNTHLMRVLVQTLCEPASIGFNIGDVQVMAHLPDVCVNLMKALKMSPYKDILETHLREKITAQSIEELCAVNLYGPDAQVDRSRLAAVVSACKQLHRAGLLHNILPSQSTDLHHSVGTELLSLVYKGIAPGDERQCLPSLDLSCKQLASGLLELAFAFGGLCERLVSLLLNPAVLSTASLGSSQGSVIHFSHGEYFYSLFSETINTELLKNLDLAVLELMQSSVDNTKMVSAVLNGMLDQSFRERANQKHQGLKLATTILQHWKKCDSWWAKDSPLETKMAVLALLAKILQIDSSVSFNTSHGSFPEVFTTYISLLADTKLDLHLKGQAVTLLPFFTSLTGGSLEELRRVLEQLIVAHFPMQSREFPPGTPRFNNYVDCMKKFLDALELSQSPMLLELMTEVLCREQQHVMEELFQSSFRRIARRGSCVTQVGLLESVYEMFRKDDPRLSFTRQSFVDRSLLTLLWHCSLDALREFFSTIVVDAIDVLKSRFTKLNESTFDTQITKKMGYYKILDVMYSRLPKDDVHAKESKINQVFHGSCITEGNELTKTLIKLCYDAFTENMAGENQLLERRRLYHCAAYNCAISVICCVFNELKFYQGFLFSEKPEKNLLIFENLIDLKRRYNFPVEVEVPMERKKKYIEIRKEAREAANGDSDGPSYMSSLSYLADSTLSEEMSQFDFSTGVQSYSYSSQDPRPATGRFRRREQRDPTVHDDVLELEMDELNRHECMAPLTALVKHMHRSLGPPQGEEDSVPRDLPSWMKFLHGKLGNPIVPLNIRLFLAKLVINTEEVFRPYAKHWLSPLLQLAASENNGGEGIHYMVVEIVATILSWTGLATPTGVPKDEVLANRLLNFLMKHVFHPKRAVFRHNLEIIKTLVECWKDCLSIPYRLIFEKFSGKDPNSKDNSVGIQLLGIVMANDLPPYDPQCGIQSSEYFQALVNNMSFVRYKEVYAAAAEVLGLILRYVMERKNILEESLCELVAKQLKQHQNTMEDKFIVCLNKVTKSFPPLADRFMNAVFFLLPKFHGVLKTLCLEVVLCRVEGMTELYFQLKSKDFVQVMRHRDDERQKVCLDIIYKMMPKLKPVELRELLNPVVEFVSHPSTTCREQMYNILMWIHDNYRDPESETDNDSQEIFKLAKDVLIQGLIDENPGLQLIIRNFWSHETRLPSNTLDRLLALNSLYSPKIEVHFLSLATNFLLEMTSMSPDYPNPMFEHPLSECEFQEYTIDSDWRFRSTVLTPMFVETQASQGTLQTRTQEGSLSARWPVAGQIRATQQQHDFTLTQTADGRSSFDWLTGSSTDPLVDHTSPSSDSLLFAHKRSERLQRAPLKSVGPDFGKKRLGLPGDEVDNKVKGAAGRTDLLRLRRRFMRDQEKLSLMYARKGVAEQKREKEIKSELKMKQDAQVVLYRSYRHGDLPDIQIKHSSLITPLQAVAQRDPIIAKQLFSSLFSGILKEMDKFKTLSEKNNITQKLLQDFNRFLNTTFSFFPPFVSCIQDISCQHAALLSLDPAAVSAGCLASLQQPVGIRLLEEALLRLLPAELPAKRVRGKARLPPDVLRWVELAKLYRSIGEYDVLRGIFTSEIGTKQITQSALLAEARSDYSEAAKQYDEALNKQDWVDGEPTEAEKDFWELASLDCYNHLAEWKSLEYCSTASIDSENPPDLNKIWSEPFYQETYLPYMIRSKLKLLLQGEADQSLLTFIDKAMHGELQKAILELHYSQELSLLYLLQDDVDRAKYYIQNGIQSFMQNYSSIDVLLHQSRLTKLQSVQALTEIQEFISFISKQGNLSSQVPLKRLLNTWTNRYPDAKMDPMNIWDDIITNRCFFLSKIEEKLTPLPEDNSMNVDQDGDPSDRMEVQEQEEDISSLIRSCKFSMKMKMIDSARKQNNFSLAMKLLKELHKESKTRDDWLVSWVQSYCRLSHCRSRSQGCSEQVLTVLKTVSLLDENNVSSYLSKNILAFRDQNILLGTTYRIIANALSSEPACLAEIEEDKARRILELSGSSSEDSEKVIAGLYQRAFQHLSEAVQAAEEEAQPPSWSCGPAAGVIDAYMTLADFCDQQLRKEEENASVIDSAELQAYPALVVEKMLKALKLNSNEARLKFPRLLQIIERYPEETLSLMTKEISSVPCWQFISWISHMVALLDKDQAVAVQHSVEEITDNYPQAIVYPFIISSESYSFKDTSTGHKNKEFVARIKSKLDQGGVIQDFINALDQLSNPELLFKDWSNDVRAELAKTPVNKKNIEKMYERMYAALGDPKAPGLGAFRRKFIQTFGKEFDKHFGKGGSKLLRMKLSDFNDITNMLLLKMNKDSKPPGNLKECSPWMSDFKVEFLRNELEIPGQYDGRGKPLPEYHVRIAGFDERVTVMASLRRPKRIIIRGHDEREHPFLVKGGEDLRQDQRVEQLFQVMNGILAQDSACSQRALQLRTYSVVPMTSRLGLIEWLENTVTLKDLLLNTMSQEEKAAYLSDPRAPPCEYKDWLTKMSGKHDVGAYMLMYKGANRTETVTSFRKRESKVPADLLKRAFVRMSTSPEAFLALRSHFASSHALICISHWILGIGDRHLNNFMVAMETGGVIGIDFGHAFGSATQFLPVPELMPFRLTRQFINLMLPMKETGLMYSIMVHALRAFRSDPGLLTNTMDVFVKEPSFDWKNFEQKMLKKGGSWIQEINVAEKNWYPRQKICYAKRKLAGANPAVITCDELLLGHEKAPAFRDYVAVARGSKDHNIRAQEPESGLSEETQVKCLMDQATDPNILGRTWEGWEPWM
Structure (SMILES),"IC50 [1, 2] [µM]","IC50 [1, 3] [µM]",IC50 (PI3Kβ) [µM]
"C[C@H]1COCCN1c1nc(-c2ccc(NC(=O)NC3CC3)cc2)cc(-c2cccnc2S(C)(=O)=O)n1 [Example 46, (S)-1-cyclopropyl-3-(4-(2-(3-methylmorpholino)-6-(2-(methylsulfonyl)pyridin-3-yl)pyrimidin-4-yl)phenyl)urea]",≥ 10,≥ 10,≥ 10
"C[C@H]1COCCN1c1nc(-c2ccc(NC(=O)N[C@H]3CCC[C@@H]3O)cc2)cc(-c2cc(F)ccc2S(C)(=O)=O)n1 [Example 76, 1-(4-(6-(5-fluoro-2-(methylsulfonyl)phenyl)-2-((S)-3-methylmorpholino)pyrimidin-4-yl)phenyl)-3-((1S,2S)-2-hydroxycyclopentyl)urea]",,≥ 10,≥ 10
"C[C@H]1COCCN1c1cc(-c2ccc(F)nc2)nc(-c2ccc(NC(=O)NC3CC3)cc2)n1 [Example 21, (S)-1-cyclopropyl-3-(4-(4-(6-fluoropyridin-3-yl)-6-(3-methylmorpholino)pyrimidin-2-yl)phenyl)urea]",≥ 10,≥ 10,≥ 10
"C[C@H]1COCCN1c1nc(-c2ccc(NC(=O)NCCO)cc2)cc(-c2cc(F)ccc2S(C)(=O)=O)n1 [Example 41, (S)-1-(4-(6-(5-fluoro-2-(methylsulfonyl)phenyl)-2-(3-methylmorpholino)pyrimidin-4-yl)phenyl)-3-(2-hydroxyethyl)urea]",≥ 10,≥ 10,≥ 10
"CS(=O)(=O)c1ccc(F)cc1-c1cc(-c2ccc(NC(=O)NCCO)cc2)nc(N2CCOCC2)n1 [Example 62, 1-(4-(6-(5-fluoro-2-(methylsulfonyl)phenyl)-2-morpholinopyrimidin-4-yl)phenyl)-3-(2-hydroxyethyl)urea]",≥ 10,≥ 10,≥ 10
"C[C@H]1COCCN1c1cc(-c2ccccc2S(C)(=O)=O)nc(-c2ccc(NC(=O)NC3CC3)cc2)n1 [Example 6, (S)-1-cyclopropyl-3-(4-(4-(3-methylmorpholino)-6-(2-(methylsulfonyl)phenyl)pyrimidin-2-yl)phenyl)urea]",≥ 10,≥ 10,≥ 10
"C[C@H]1COCCN1c1nc(-c2ccc(NC(=O)NCCF)cc2)cc(-c2cc(F)ccc2S(C)(=O)=O)n1 [Example 44, (S)-1-(4-(6-(5-fluoro-2-(methylsulfonyl)phenyl)-2-(3-methylmorpholino)pyrimidin-4-yl)phenyl)-3-(2-fluoroethyl)urea]",≥ 10,≥ 10,≥ 10
"CCNC(=O)Nc1ccc(-c2cc(-c3cc(F)ccc3S(C)(=O)=O)nc(N3CCOC[C@@H]3C)n2)cc1 [Example 2, (S)-1-ethyl-3-(4-(6-(5-fluoro-2-(methylsulfonyl)phenyl)-2-(3-methylmorpholino)pyrimidin-4-yl)phenyl)urea]",≥ 10,≥ 10,≥ 10
"CCNC(=O)Nc1ccc(-c2cc(-c3ccccc3C#N)nc(N3CCOC[C@@H]3C)n2)cc1 [Example 8, (S)-1-(4-(6-(2-cyanophenyl)-2-(3-methylmorpholino)pyrimidin-4-yl)phenyl)-3-ethylurea]",≥ 10,≥ 10,

# The next lines start with the values.
"IC50 [1, 2] [µM]","IC50 [1, 3] [µM]",IC50 (PI3Kβ) [µM],Structure (SMILES)
≥ 10,≥ 10,≥ 10,"C[C@H]1COCCN1c1cc(-c2cncc(F)c2)nc(-c2ccc(NC(=O)NC3CC3)cc2)n1 [Example 23, (S)-1-cyclopropyl-3-(4-(4-(5-fluoropyridin-3-yl)-6-(3-methylmorpholino)pyrimidin-2-yl)phenyl)urea]"
≥ 10,≥ 10,≥ 10,"C[C@H]1COCCN1c1nc(-c2ccc(NC(=O)NC3CC3)cc2)cc(-c2ccccc2S(C)(=O)=O)n1 [Example 4, (S)-1-cyclopropyl-3-(4-(2-(3-methylmorpholino)-6-(2-(methylsulfonyl)phenyl)pyrimidin-4-yl)phenyl)urea]"
≥ 10,≥ 10,≥ 10,"C[C@H]1COCCN1c1cc(-c2ccccn2)nc(-c2ccc(NC(=O)NC3CC3)cc2)n1 [Example 42, (S)-1-cyclopropyl-3-(4-(4-(3-methylmorpholino)-6-(pyridin-2-yl)pyrimidin-2-yl)phenyl)urea]"
≥ 10,≥ 10,≥ 10,"C[C@H]1COCCN1c1nc(-c2ccc(NC(=O)NC3CC3)cc2)cc(-c2cc(F)ccc2S(C)(=O)=O)n1 [Example 40, (S)-1-cyclopropyl-3-(4-(6-(5-fluoro-2-(methylsulfonyl)phenyl)-2-(3-methylmorpholino)pyrimidin-4-yl)phenyl)urea]"
≥ 10,≥ 10,≥ 10,"C[C@H]1COCCN1c1nc(-c2ccc(NC(=O)NCCCO)cc2)cc(-c2cc(F)ccc2S(C)(=O)=O)n1 [Example 64, (S)-1-(4-(6-(5-fluoro-2-(methylsulfonyl)phenyl)-2-(3-methylmorpholino)pyrimidin-4-yl)phenyl)-3-(3-hydroxypropyl)urea]"
≥ 10,≥ 10,≥ 10,"C[C@H]1COCCN1c1nc(-c2ccc(NC(=O)NCC(F)F)cc2)cc(-c2cc(F)ccc2S(C)(=O)=O)n1 [Example 47, (S)-1-(2,2-difluoroethyl)-3-(4-(6-(5-fluoro-2-(methylsulfonyl)phenyl)-2-(3-methylmorpholino)pyrimidin-4-yl)phenyl)urea]"
≥ 10,≥ 10,≥ 10,"C[C@H]1COCCN1c1cc(-c2ccccn2)nc(-c2ccc(NC(=O)NCCO)cc2)n1 [Example 43, (S)-1-(2-hydroxyethyl)-3-(4-(4-(3-methylmorpholino)-6-(pyridin-2-yl)pyrimidin-2-yl)phenyl)urea]"
≥ 10,1 to 10,≥ 10,"O=C(Nc1ccncc1)Nc1ccc(-c2nccc(N3CC4CCC(C3)O4)n2)cc1 [Example 61, 1-(4-(4-(8-oxa-3-azabicyclo[3.2.1]octan-3-yl)pyrimidin-2-yl)phenyl)-3-(pyridin-4-yl)urea]"
≥ 10,≥ 10,≥ 10,"C[C@H]1COCCN1c1ccnc(-c2ccc(NC(=O)Nc3ccncc3)cc2)n1 [Example 60, (S)-1-(4-(4-(3-methylmorpholino)pyrimidin-2-yl)phenyl)-3-(pyridin-4-yl)urea]"
